Results as given in ChEMBL document CHEMBL1201862, “PubChem BioAssay data set” (2004).
Activity calls are given as the source filed them.

Columns and labels:
[1] = molecular target: T1, Short transient receptor potential channel 4 (Mus musculus, UniProt Q9QUQ5); experiment: block of DAMGO-driven TRPC4 calcium entry – cell-based, HEK293 TRPC4/mu-opioid, Fluo-4 calcium, dose response (AID 434942); assay type: functional;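 also: potency of inhibitors blocking the TRPC4 calcium response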
T1 sequence (Q9QUQ5 whole entry): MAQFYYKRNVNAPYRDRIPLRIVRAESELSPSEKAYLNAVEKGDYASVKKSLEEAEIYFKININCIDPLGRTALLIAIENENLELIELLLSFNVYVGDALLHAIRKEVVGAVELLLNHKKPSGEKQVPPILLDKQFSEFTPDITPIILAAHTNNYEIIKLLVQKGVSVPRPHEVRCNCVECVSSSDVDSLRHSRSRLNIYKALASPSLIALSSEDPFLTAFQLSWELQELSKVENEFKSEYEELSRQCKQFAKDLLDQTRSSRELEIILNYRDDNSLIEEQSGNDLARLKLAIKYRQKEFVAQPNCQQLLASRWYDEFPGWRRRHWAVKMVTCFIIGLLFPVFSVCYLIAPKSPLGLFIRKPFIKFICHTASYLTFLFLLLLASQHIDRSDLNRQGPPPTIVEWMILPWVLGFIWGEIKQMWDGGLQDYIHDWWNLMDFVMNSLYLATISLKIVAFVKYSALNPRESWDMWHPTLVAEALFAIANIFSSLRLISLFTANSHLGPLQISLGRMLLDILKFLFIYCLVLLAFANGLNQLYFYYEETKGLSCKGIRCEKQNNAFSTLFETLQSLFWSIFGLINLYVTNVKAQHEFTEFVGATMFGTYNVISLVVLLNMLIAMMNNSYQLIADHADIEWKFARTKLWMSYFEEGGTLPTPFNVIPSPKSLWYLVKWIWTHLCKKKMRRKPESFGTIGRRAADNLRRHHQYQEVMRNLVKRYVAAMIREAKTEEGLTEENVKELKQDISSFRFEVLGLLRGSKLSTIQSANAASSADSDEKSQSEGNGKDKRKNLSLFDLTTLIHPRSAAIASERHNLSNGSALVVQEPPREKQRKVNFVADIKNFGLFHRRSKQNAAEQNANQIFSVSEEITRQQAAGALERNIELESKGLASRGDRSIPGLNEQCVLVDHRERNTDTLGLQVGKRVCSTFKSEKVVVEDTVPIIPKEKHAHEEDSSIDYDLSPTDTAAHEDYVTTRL

[2] = molecular target: T1, Short transient receptor potential channel 4; experiment: calcium entry via TRPC4 opening agents – cell-based, HEK293 TRPC4/mu-opioid, Fluo-4 calcium, dose response (AID 434937); assay type: functional
[3] = tested on: HEK293; experiment: EBV LMP1 TES2 canonical NF-kB signalling blockers – cell-based, HEK293, luciferase, cherry-pick, dose response (AID 588343); assay type: functional; conditions: Homo sapiens
[4] = molecular target: DNA dC->dU-editing enzyme APOBEC-3A (Homo sapiens, UniProt P31941); experiment: Dose Response confirmation of small molecule APOBEC3A DNA Deaminase Inhibitors via a fluorescence-based single-stranded DNA deaminase assay. [Related pubchem assays (depositor defined):AID493011, AID493024]; assay type: functional
Chain of DNA dC->dU-editing enzyme APOBEC-3A (P31941 whole entry): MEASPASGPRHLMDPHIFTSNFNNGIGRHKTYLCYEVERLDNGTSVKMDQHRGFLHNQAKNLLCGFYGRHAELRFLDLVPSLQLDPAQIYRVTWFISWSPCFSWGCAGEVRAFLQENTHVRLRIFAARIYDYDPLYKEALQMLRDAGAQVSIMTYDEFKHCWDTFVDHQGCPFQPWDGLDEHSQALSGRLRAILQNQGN

[5] = molecular target: DNA dC->dU-editing enzyme APOBEC-3G (Homo sapiens, UniProt Q9HC16); assay type: functional;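 also: Dose-response counterscreen measuring inhibition of APOBEC3G DNA deaminase activity, run while confirming APOBEC3A inhibitors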
Chain of DNA dC->dU-editing enzyme APOBEC-3G (Q9HC16 whole entry): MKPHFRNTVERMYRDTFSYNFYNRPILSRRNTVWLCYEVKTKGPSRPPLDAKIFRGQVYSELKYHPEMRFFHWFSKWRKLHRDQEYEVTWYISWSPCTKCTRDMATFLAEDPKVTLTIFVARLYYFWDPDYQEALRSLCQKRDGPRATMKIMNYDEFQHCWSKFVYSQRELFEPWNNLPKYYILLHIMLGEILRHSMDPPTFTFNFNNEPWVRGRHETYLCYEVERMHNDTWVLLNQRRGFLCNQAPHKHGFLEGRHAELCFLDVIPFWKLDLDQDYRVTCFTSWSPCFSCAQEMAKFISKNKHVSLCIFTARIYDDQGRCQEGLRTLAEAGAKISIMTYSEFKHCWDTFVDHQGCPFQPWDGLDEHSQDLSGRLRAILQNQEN

[6] = tested on: HEK293; experiment: inhibition of NOD1-driven NF-kB reporter – cell-based, luminescence, uHTS, primary screen (AID 1578); assay type: functional; conditions: Homo sapiens
[7] = tested on: HEK293; experiment: cells; assay type: functional, cell-based; conditions: Homo sapiens
[8] = tested on: HEK293; experiment: cells; assay type: functional, cell-based; conditions: Homo sapiens; remark: listed apart in the source
[9] = molecular target: Nucleotide-binding oligomerization domain-containing protein 2 (Homo sapiens, UniProt Q9HC29); experiment: inhibition of NOD2-driven NF-kB reporter – cell-based, luminescence, uHTS, HEK293 (AID 1566); assay type: functional
Chain of Nucleotide-binding oligomerization domain-containing protein 2 (Q9HC29 whole entry, the tested form may be a part): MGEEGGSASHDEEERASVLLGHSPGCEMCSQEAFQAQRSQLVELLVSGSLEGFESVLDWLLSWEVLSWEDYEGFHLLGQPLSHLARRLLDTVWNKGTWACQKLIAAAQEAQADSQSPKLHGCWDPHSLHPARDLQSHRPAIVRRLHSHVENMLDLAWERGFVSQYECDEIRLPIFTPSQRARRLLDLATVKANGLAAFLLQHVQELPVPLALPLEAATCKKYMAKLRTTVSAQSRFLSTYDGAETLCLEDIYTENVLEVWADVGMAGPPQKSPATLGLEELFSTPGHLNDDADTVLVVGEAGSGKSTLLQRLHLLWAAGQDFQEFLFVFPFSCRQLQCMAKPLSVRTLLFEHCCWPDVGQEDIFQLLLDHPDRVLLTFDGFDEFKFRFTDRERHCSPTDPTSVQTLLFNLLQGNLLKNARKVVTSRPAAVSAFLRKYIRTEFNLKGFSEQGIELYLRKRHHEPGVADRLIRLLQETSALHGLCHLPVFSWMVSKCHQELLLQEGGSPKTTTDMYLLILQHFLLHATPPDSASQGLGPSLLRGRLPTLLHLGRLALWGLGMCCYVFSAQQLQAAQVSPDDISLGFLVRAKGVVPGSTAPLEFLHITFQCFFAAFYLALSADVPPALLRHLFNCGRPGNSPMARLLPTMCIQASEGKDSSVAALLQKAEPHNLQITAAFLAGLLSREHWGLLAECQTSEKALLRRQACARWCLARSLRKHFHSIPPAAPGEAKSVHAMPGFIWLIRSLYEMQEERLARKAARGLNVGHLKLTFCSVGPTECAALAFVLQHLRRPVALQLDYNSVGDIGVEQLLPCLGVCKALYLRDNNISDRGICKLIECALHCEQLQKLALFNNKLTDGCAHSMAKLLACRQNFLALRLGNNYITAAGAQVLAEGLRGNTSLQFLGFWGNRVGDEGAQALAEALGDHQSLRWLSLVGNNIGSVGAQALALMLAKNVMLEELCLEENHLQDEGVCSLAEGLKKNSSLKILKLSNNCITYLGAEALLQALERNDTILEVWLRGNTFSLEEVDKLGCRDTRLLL

[10] = tested on: HEK293; experiment: NOD2 signaling inhibitors in MDP-stimulated cells, cell-based, uHTS, luminescence (AID 2001); assay type: functional; conditions: Homo sapiens
[11] = tested on: HEK293; experiment: cells; assay type: functional, cell-based; conditions: Homo sapiens; remark: listed apart in the source
[12] = viability of uninfected HEp-2 cells – cell-based, HTS, cytotoxicity control for RSV inhibitor project, dose response (AID 2410); assay type: functional; conditions: human respiratory syncytial virus
[13] = Trypanosoma cruzi growth suppression in host cells – NIH3T3 host cells, beta-gal luminescence, confirmation (AID 2044); assay type: functional, cell-based;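 also: intracellular parasites grown in NIH/3T3 mouse fibroblasts as host cells; luminescent beta-galactosidase reporter signal from transgenic T. cruzi replicating inside host cells; inhibitors lower the luminescence signal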
[14] = NIH3T3 cell viability loss – ATP luminescence, mouse fibroblasts, counter-screen, dose response (AID 2010); assay type: functional, cell-based;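 also: cells exposed to compound for about 90 hours before reading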
[15] = molecular target: T2, Carboxy-terminal domain RNA polymerase II polypeptide A small phosphatase 1 (Homo sapiens, UniProt Q9GZU7); experiment: CTDSP1 inhibitors, concentration-response, biochemical, absorbance readout, ultra-high-throughput screen actives (AID 540297); assay type: functional
T2 sequence (Q9GZU7 whole entry): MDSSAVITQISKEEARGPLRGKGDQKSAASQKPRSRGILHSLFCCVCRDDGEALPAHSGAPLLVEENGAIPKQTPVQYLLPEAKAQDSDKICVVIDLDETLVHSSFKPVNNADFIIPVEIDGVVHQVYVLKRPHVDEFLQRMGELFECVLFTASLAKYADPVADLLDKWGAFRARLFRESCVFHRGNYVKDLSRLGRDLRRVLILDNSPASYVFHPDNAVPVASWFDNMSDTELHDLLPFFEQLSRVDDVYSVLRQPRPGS

[16] = viability of PTEN-deleted HCT116 cells – cell-based, HCT116 PTEN knockout, dose response (AID 1047); assay type: functional;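 also: HCT116 colon tumor cells with PTEN knocked out; cells exposed to compound for 60 hours before readout; potency for loss of cell viability measured by luminescence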
[17] = viability of HCT116 lacking mutant beta-catenin – cell-based, human colon tumor, dose response (AID 1045); assay type: functional;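 also: HCT116 colon tumor cells with beta catenin knocked out; cells exposed to compound for 60 hours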
[18] = tested on: Vero; experiment: cells; assay type: functional; conditions: Chlorocebus sabaeus
[19] = molecular target: T3, Leucine aminopeptidase (Plasmodium falciparum 3D7, UniProt Q8IL11); experiment: P. falciparum M17LAP inhibitors, primary screen, biochemical, fluorogenic H-Leu-NHMec substrate, 1536-well (AID 1619); assay type: functional
T3 sequence (Q8IL11 whole entry): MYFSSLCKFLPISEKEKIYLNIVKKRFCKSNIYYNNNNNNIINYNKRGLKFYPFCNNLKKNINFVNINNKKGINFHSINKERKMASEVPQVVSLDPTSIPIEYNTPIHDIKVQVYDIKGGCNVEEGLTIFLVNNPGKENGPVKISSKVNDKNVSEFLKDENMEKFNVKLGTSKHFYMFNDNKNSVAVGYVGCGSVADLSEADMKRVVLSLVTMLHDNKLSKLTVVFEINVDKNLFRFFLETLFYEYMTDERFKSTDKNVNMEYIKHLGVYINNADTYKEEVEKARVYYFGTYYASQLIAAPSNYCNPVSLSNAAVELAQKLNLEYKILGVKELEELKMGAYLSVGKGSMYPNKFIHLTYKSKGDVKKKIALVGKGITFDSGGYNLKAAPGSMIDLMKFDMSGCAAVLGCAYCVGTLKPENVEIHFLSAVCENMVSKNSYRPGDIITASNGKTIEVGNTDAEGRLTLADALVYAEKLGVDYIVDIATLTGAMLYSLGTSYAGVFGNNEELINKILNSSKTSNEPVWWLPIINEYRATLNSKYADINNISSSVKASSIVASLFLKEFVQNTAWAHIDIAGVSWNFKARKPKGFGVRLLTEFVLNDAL

[20] = molecular target: T4, Aminopeptidase N (Plasmodium falciparum FcB1/Columbia, UniProt O96935); experiment: malaria alanyl aminopeptidase activity blockers – biochemical, fluorogenic H-Leu-NHMec substrate, 1536-well (AID 1445); set-up: species or system Plasmodium falciparum 3D7, 3D7
T4 sequence (O96935 whole entry): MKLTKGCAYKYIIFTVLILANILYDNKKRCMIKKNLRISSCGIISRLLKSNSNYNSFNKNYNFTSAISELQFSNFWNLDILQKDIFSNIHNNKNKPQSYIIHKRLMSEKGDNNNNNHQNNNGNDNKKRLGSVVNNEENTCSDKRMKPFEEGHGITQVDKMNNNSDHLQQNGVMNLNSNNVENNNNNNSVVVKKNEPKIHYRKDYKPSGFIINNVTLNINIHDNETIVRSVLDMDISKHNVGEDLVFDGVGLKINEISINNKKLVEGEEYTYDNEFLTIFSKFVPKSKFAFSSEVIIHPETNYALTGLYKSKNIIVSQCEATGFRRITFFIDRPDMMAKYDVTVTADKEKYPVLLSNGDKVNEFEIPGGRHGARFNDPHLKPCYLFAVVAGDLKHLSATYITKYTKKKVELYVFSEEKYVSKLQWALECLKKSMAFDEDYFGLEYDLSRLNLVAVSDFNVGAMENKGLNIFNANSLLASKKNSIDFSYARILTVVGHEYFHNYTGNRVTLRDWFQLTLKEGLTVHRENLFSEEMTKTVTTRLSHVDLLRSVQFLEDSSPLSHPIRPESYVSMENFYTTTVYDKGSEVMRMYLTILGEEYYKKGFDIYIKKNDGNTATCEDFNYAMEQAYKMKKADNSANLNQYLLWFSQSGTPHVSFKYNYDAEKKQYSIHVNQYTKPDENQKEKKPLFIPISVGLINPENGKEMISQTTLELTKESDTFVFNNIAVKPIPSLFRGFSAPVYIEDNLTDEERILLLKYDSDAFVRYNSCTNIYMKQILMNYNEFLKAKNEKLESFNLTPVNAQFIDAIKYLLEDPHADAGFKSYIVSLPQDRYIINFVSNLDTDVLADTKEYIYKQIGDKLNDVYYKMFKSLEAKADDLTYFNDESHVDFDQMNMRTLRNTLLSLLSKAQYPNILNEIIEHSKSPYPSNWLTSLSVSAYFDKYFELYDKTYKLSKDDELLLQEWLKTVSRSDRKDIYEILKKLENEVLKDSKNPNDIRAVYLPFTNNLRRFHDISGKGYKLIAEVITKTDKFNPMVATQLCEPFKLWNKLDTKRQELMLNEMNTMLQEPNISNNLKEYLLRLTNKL

[21] = molecular target: T5, Polyadenylate-binding protein 1 (Homo sapiens, UniProt P11940); experiment: MLLE binding blockers, Cy5 peptide tracer – biochemical, fluorescence polarization, Cy5-PAM2 peptide, secondary, miRNA deadenylation inhibitor project, dose response (AID 602260); assay type: functional; conditions: read-out: IC50_Mean
T5 sequence (P11940 whole entry, the tested form may be a part): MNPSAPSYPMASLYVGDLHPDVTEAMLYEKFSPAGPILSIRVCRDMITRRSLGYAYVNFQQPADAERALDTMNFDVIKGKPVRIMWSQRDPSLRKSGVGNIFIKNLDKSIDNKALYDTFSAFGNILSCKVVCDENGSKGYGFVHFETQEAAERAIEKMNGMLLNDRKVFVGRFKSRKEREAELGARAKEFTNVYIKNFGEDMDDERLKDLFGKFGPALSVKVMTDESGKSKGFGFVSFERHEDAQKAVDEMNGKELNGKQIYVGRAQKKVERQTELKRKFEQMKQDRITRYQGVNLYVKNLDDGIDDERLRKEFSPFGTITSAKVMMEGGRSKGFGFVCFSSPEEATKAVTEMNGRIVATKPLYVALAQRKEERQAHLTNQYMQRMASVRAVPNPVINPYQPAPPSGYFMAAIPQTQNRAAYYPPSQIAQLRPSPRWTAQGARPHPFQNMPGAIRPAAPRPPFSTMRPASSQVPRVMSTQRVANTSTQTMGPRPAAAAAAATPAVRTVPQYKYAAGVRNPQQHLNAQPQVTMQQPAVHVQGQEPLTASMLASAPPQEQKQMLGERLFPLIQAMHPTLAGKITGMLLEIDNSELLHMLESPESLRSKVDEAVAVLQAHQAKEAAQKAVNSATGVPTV

[22] = molecular target: T5, Polyadenylate-binding protein 1; experiment: MLLE domain peptide-binding blockers, IC50 – biochemical, fluorescence polarization, FITC-PAM2 peptide, dose response (AID 602259); assay type: functional; conditions: read-out: IC50_Mean

SMILES: Cc1ncsc1CCOC(=O)c1cccc([N+](=O)[O-])c1
- EC50 [1]: 1.68 µM (active)

SMILES: Cc1c(C(=O)N(Cc2cccs2)C2CCS(=O)(=O)C2)oc2ccccc12 (stereo not drawn)
- EC50 [1]: 1.68 µM (active)
- EC50 [2]: 2.11 µM (active)

SMILES: Cc1cc(C)n(C2CCCCC2OC(=O)c2ccccc2F)n1 (stereo not drawn)
- AC50 [3]: > 350 µM (inactive)

SMILES: COC(=O)C1=C(C)N(Cc2ccccc2)C(NCCCCO)=N[C@H]1c1ccccc1
- IC50 [4]: 2.27 µM (active)
- IC50 [5]: 5.13 µM (active)

SMILES: Cc1cc(/C=C2\SC(=O)N(C)C2=O)c(C)n1-c1ccc(S(N)(=O)=O)cc1
- IC50 [4]: 3.12 µM (active)
- IC50 [5]: 4.58 µM (active)

SMILES: CCOC(=O)C1CCN(S(=O)(=O)c2ccc3c(c2)N(C(C)=O)CC(C)S3)CC1 (stereo not drawn)
- EC50 [6]: 7.03 µM (active)
- IC50 [7]: 19.7 µM (active)
- IC50 [8]: > 20 µM (inactive)
- EC50 [9]: > 20 µM (inactive)
- IC50 [10]: > 20 µM (inactive)
- IC50 [11]: > 20 µM (inactive)

SMILES: CC1(C)CC(N2CCOCC2)=CC(=[N+]2CCOCC2)C1
- IC50 [4]: 2.59 µM (active)
- IC50 [5]: 2.26 µM (active)

SMILES: CC(=O)c1cccc(NS(=O)(=O)c2ccc(NC(=O)N3CCCCC3)cc2)c1
- EC50 [6]: 3.33 µM (active)
- IC50 [7]: 14.3 µM (active)
- IC50 [8]: > 20 µM (inactive)
- EC50 [9]: 15.6 µM (active)
- IC50 [10]: 11.3 µM (inactive)
- IC50 [11]: > 20 µM (inactive)

SMILES: CCN1CCN(c2ccc(S(=O)(=O)N3CCCCC3)cc2NC(=O)Cc2ccccc2)CC1
- IC50 [4]: 3.97 µM (active)
- IC50 [5]: 5.57 µM (active)

SMILES: CSC1=NC2=C(CCCC2)C2(CCCCC2)N1
- EC50 [1]: 5.96 µM (active)

SMILES: Cc1cccc(N2CCN(C(=O)CCCCCn3c(=S)[nH]c4ccc(N5CCOCC5)cc4c3=O)CC2)c1C
- CC50 [12]: 26.4 µM (active)
- EC50 [6]: 15.1 µM (active)
- IC50 [7]: > 20 µM (inactive)
- IC50 [8]: > 20 µM (inactive)
- EC50 [9]: 11.9 µM (active)
- IC50 [10]: 11.9 µM (inactive)
- EC50 [13]: 1.56 µM (active)
- IC50 [11]: > 20 µM (inactive)
- EC50 [14]: > 60 µM (not active)

SMILES: N#C/C(=C/c1ccc(OCc2ccc(C(=O)O)cc2)cc1)C(=O)Nc1ccccc1
- IC50 [4]: 1.75 µM (active)
- IC50 [5]: 2.36 µM (active)
- IC50 [15]: 5.32 µM (active)

SMILES: O=C(CN1CCCCC1)N=Nc1c(O)[nH]c2ccccc12
- EC50 [1]: 2.99 µM (active)

SMILES: O=[N+]([O-])CC(c1ccc(Br)cc1)c1c(O)n[nH]c1-c1ccccc1O (stereo not drawn)
- CC50 [12]: 10.3 µM (active)
- EC50 [16]: 9 µM (active)
- EC50 [17]: 6.72 µM (active)
- CC50 [18]: 14.2 µM (active)

SMILES: Cc1ccc(S(=O)(=O)CCSc2cccc(C(=O)Nc3ccccc3C(=O)O)c2)cc1
- IC50 [19]: 9.59 µM (active)
- CC50 [12]: 13.5 µM (active)
- IC50 [20]: 34.3 µM (active)
- IC50 [21]: > 66 µM (inactive)
- IC50 [22]: > 66 µM (inactive)

SMILES: CCn1c2ccccc2c2cc(/C=C(/C#N)C(N)=S)ccc21
- AC50 [3]: 1.21 µM (active)
